Bounds are passed on as bounds.

Data on 21 molecules can be found in US20240254118A1, “PRMT5 INHIBITORS AND USES THEREOF” (Gilead Sciences, Inc., priority 2022, published 2024).

Assay [1] has as its system SDMA signal (PRMT5 inhibition) in HCT116 MTAP-deleted cells. The assay is described as follows: Symmetric di-methyl arginine image-based high content screen assay (SDMA assay), HCT116 MTAP-deleted. The following applies: SDMA assay; for EC50: Homo sapiens, HCT-116, 72 h, 3 days of treatment, cell line not given, taken as HCT116 MTAP-deleted, read-out: EC50 (SDMA assay). Format: cell-based. The method in brief: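 HCT116 MTAP-deleted cells treated with compound until Day 3, then formalin-fixed, permeabilized and immunostained for SDMA, with DAPI nuclear counterstain. Imaged by high-content microscopy; SDMA read-out is mean Alexa 488 intensity per DAPI-defined cell, reflecting PRMT5 inhibition.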

Assay [2] relates to HCT116 MTAP-deleted cells. The assay is described as follows: Cell viability assay (CellTiter-Glo, 7 days), HCT116 MTAP-deleted. The following applies: Homo sapiens, HCT-116, 168 h. Background: In ATP-based viability assays light output follows the ATP content of the culture.
[3] abbreviates: taken as HCT116 WT versus MTAP-deleted.
[4] abbreviates: taken as HCT116 WT vs MTAP-deleted.

As to `Cn1ncc2c(N)nc3ccc(C(=O)N(Cc4ccc(C(F)(F)F)cn4)N4CCc5ccccc5C4=O)cc3c21` [Example 36, 4-amino-1-methyl-N-(1-oxo-3,4-dihydroisoquinolin-2-yl)-N-[[5-(trifluoromethyl)-2-pyridyl]methyl]pyrazolo[4,3-c]quinoline-8-carboxamide], the EC50 in assay [1] is below 1 nM. The “EC50 selectivity (SDMA assay)” value in assay [1] (setting [3]) is reported as 30. Further, in assay [2], the CC50 is below 100 nM.
In the same order, the values of `Cn1ncc2c(N)nc3cc(Cl)c(C(=O)N(Cc4ccc(C(F)(F)F)cn4)N4CCCOC4=O)cc3c21` [Example 143, 4-amino-7-chloro-1-methyl-N-(2-oxo-1,3-oxazinan-3-yl)-N-[[5-(trifluoromethyl)-2-pyridyl]methyl]pyrazolo[4,3-c]quinoline-8-carboxamide] are 1 to 5 nM, 67 and below 100 nM.
Turning to `CN(C(=O)C1CC1)N(Cc1ccc(C(F)(F)F)cn1)C(=O)c1cc2c(cc1F)nc(N)c1cnn(C)c12` [Example 146, 4-amino-N′-(cyclopropanecarbonyl)-7-fluoro-N′,1-dimethyl-N-[[5-(trifluoromethyl)-2-pyridyl]methyl]pyrazolo[4,3-c]quinoline-8-carbohydrazide], in assay [1], the EC50 is below 1 nM. In addition, the “EC50 selectivity (SDMA assay)” value in assay [1] (setting [3]) stood at 16. Also, the CC50 in assay [2] was below 100 nM.
Turning to `Cn1ncc2c(N)nc3cc(F)c(C(=O)N(Cc4ccc(C(F)(F)F)cn4)N4CCC(C)(C)C4=O)cc3c21` [Example 44, 4-amino-N-(3,3-dimethyl-2-oxo-pyrrolidin-1-yl)-7-fluoro-1-methyl-N-[[5-(trifluoromethyl)-2-pyridyl]methyl]pyrazolo[4,3-c]quinoline-8-carboxamide], the EC50 in assay [1] fell in the range of 1 to 5 nM. For the same molecule, in assay [1] (setting [3]), the “EC50 selectivity (SDMA assay)” value is given as 187. Also, the CC50 in assay [2] is below 100 nM.
`Cn1ncc2c(N)nc3ccc(C(=O)N(Cc4ccc(C(F)(F)F)cn4)NC(=O)C4(F)CC4)cc3c21` [Example 308, 4-amino-N′-(1-fluorocyclopropane-1-carbonyl)-1-methyl-N-((5-(trifluoromethyl)pyridin-2-yl)methyl)-1H-pyrazolo[4,3-c]quinoline-8-carbohydrazide]: the EC50 in assay [1] is below 1 nM. Moreover, in assay [1] (setting [3]), the “EC50 selectivity (SDMA assay)” value is 122. In addition, the CC50 in assay [2] is below 100 nM.
In the case of `CN(C(=O)[C@H]1C[C@H]1F)N(Cc1ncc(C(F)(F)F)cc1F)C(=O)c1ccc2nc(N)c3cnn(C)c3c2c1` [Example 262, 4-amino-N-((3-fluoro-5-(trifluoromethyl)pyridin-2-yl)methyl)-N′-((1R,2R)-2-fluorocyclopropane-1-carbonyl)-N′,1-dimethyl-1H-pyrazolo[4,3-c]quinoline-8-carbohydrazide], in assay [1], the EC50 was in the range of 1 to 5 nM. Moreover, the “EC50 selectivity (SDMA assay)” value in assay [1] (setting [3]) is given as 169. Moreover, the CC50 in assay [2] is below 100 nM.
Consider `C[C@@H]1CN(N(Cc2ccc(C(F)(F)F)cn2)C(=O)c2ccc3nc(N)c4cnn(C)c4c3c2)C[C@H](C)O1` [Example 310, 4-amino-N-((2S,6R)-2,6-dimethylmorpholino)-1-methyl-N-((5-(trifluoromethyl)pyridin-2-yl)methyl)-1H-pyrazolo[4,3-c]quinoline-8-carboxamide], for which, in assay [1], the EC50 was below 1 nM. In addition, the “EC50 selectivity (SDMA assay)” value in assay [1] (setting [3]) was found to be 132. In assay [2], this molecule came in with a CC50 below 100 nM.
In the same order, the values of `COCCN(C)N(Cc1ccc(C(F)(F)F)cc1F)C(=O)c1cc2c(cc1F)nc(N)c1cnn(C)c12` [Example 395, 4-amino-7-fluoro-N-(2-fluoro-4-(trifluoromethyl)benzyl)-N′-(2-methoxyethyl)-N′,1-dimethyl-1H-pyrazolo[4,3-c]quinoline-8-carbohydrazide] are 1 to 5 nM, 33 and below 100 nM.
In the same order, the values of `Cn1ncc2c(N)nc3ccc(C(=O)N(Cc4ccc(OC(F)F)cc4)N4CCCOC4=O)cc3c21` [Example 5, 4-amino-N-(4-(difluoromethoxy)benzyl)-1-methyl-N-(2-oxo-1,3-oxazinan-3-yl)-1H-pyrazolo[4,3-c]quinoline-8-carboxamide] are below 1 nM, 266 and below 100 nM.
In the same order, the values of `CN(CC1CC1)N(Cc1ccc(C(F)(F)F)cn1)C(=O)c1ccc2nc(N)c3cnn(C)c3c2c1` [Example 173, 4-amino-N′-(cyclopropylmethyl)-N′,1-dimethyl-N-[[5-(trifluoromethyl)-2-pyridyl]methyl]pyrazolo[4,3-c]quinoline-8-carbohydrazide] are below 1 nM, 117 and below 100 nM.
Regarding `CN(C(=O)C(F)(F)C1CC1)N(Cc1ccc(C(F)(F)F)cn1)C(=O)c1ccc2nc(N)c3cnn(C)c3c2c1` [Example 342, 4-amino-N′-(2-cyclopropyl-2,2-difluoroacetyl)-N′,1-dimethyl-N-((5-(trifluoromethyl)pyridin-2-yl)methyl)-1H-pyrazolo[4,3-c]quinoline-8-carbohydrazide], in assay [1], the EC50 was in the range of 1 to 5 nM. In assay [1] (setting [3]), the “EC50 selectivity (SDMA assay)” value amounted to 30. Moreover, the CC50 in assay [2] is below 100 nM.
In the same order, the values of `CC(=O)NN(Cc1nc2cc(C(F)(F)F)ccc2s1)C(=O)c1cc2c(cc1F)nc(N)c1cnn(C)c12` [Example 216, N′-acetyl-4-amino-7-fluoro-1-methyl-N-[[5-(trifluoromethyl)-1,3-benzothiazol-2-yl]methyl]pyrazolo[4,3-c]quinoline-8-carbohydrazide] are below 1 nM, 54 and below 100 nM.
In the same order, the values of `CN(C(=O)C1CC1)N(Cc1ccc(Cl)cc1F)C(=O)c1ccc2nc(N)c3cnn(C)c3c2c1` [Example 155, 4-amino-N-(4-chloro-2-fluorobenzyl)-N′-(cyclopropanecarbonyl)-N′,1-dimethyl-1H-pyrazolo[4,3-c]quinoline-8-carbohydrazide] are below 1 nM, 94 and below 100 nM.
In the same order, the values of `Cn1ncc2c(N)nc3ccc(C(=O)N(Cc4ccc(C(F)(F)F)cn4)N4CC5(COC5)OC4=O)cc3c21` [Example 191, 4-amino-1-methyl-N-(6-oxo-2,5-dioxa-7-azaspiro[3.4]octan-7-yl)-N-[[5-(trifluoromethyl)-2-pyridyl]methyl]pyrazolo[4,3-c]quinoline-8-carboxamide] are above 5 nM, 103 and 100 to 1000 nM.
Take `CC(=O)N(C)N(Cc1nc2ccc(F)cc2s1)C(=O)c1ccc2nc(N)c3cnn(C)c3c2c1` [Example 86, N′-Acetyl-4-amino-N-[(6-fluoro-1,3-benzothiazol-2-yl)methyl]-N′, 1-dimethyl-pyrazolo[4,3-c]quinoline-8-carbohydrazide]: the EC50 in assay [1] was below 1 nM. In addition, the “EC50 selectivity (SDMA assay)” value in assay [1] (setting [3]) is 92. The molecule also displayed a CC50 in assay [2] below 100 nM.
As for `CC(=O)N(C)N(Cc1cc2cc(C(F)(F)F)ccn2n1)C(=O)c1ccc2nc(N)c3cnn(C)c3c2c1` [Example 402, N′-acetyl-4-amino-N′,1-dimethyl-N-((5-(trifluoromethyl)pyrazolo[1,5-a]pyridin-2-yl)methyl)-1H-pyrazolo[4,3-c]quinoline-8-carbohydrazide], the EC50 in assay [1] is below 1 nM. Further, the “EC50 selectivity (SDMA assay)” value in assay [1] (setting [4]) is 311. In addition, the CC50 in assay [2] was below 100 nM.
For the molecule `CC(=O)N(C)N(Cc1ccc(OC(F)F)cc1Cl)C(=O)c1ccc2nc(N)c3cnn(C)c3c2c1` [Example 447, N′-acetyl-4-amino-N-(2-chloro-4-(difluoromethoxy)benzyl)-N′,1-dimethyl-1H-pyrazolo[4,3-c]quinoline-8-carbohydrazide], the EC50 in assay [1] is below 1 nM. The “EC50 selectivity (SDMA assay)” value in assay [1] (setting [4]) came to 49. Moreover, the CC50 in assay [2] is below 100 nM.
As for `CC(=O)N(C)N(Cc1ccc2ncsc2c1)C(=O)c1ccc2nc(N)c3cnn(C)c3c2c1` [Example 196, N′-acetyl-4-amino-N-(1,3-benzothiazol-6-ylmethyl)-N′,1-dimethyl-pyrazolo[4,3-c]quinoline-8-carbohydrazide], the EC50 in assay [1] fell in the range of 1 to 5 nM. In addition, in assay [1] (setting [3]), the “EC50 selectivity (SDMA assay)” value is listed as 137. The CC50 in assay [2] was below 100 nM.
Take `CN(C(=O)C1CC(F)(F)C1)N(Cc1ccc(C(F)(F)F)cn1)C(=O)c1ccc2nc(N)c3cnn(C)c3c2c1` [Example 99, 4-amino-N′-(3,3-difluorocyclobutane-1-carbonyl)-N′,1-dimethyl-N-((5-(trifluoromethyl)pyridin-2-yl)methyl)-1H-pyrazolo[4,3-c]quinoline-8-carbohydrazide]: in assay [1], the EC50 fell in the range of 1 to 5 nM. For the same molecule, in assay [1] (setting [3]), the “EC50 selectivity (SDMA assay)” value is listed as 269. Also, the half-maximal cytotoxic concentration (CC50) in assay [2] is below 100 nM.
In the same order, the values of `CN(C(=O)C12CC(C1)C2)N(Cc1ccc(C(F)(F)F)nn1)C(=O)c1cc2c(cc1F)nc(N)c1cnn(C)c12` [Example 246, 4-amino-N′-(bicyclo[1.1.1]pentane-1-carbonyl)-7-fluoro-N′, 1-dimethyl-N-((6-(trifluoromethyl)pyridazin-3-yl)methyl)-1H-pyrazolo[4,3-c]quinoline-8-carbohydrazide] are 1 to 5 nM, 288 and 100 to 1000 nM.
In the same order, the values of `Cn1cc(-c2ccc(CN(C(=O)c3ccc4nc(N)c5cnn(C)c5c4c3)N3CCCCC3=O)nc2)cn1` [Example 130, 4-amino-1-methyl-N-((5-(1-methyl-1H-pyrazol-4-yl)pyridin-2-yl)methyl)-N-(2-oxopiperidin-1-yl)-1H-pyrazolo[4,3-c]quinoline-8-carboxamide] are 1 to 5 nM, 34 and below 100 nM.

The EC50 is the concentration that produces a half-maximal response. As usually defined, the CC50 is the concentration giving 50% cytotoxicity.
